Laboratory results published in ChEMBL document CHEMBL1133658 (J Med Chem, 2000).

Key:
[1] = molecular target: T1, Tubulin alpha chain (Sus scrofa, UniProt P02550)
[2] = molecular target: T1, Tubulin alpha chain; assay: Inhibition of tubulin polymerization interacting at the colchicine binding site

T1 sequence (P02550 whole entry, looked up): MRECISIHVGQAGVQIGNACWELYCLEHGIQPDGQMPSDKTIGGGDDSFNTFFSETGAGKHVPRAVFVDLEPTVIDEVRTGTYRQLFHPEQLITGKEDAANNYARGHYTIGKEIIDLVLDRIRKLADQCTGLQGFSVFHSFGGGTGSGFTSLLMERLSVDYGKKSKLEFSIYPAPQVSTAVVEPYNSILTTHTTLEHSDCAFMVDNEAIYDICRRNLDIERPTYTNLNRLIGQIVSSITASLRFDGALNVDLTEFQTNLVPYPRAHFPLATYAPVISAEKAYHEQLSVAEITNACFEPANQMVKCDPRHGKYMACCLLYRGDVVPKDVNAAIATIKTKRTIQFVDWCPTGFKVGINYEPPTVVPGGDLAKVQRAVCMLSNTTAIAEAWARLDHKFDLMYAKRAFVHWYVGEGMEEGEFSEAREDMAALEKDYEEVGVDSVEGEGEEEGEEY

Structure (SMILES) | IC50 [1] [nM] | IC50 [2] [nM]
Oc1cc(-c2cccs2)nc2cc3c(cc12)OCO3 | 2190 | –
COc1cccc([C@H]2CC(=O)c3cc4c(cc3N2)OCO4)c1 | 2340 | –
COc1cccc(-c2cc(O)c3ccccc3n2)c1 | 1410 | –
COc1cc2c(c(OC)c1O)-c1ccc(SC)c(=O)cc1[C@@H](NC(C)=O)CC2 | 1510 | –
COc1cc2c(c(OC)c1OC)-c1ccc(SC)c(=O)cc1[C@@H](NCc1ccc([N+](=O)[O-])cc1)CC2 | 2290 | –
COc1ccc(CN[C@H]2CCc3cc(OC)c(OC)c(OC)c3-c3ccc(SC)c(=O)cc32)c(OC)c1OC | 2290 | –
COc1cc2c(c(OC)c1OC)-c1ccc(SC)c(=O)cc1[C@@H](COC(=O)c1ccccc1F)C2 | 3630 | –
COc1cc2c(c(OC)c1OC)-c1ccc(SC)c(=O)cc1[C@@H](OC(=O)C13CCC(C)(C(=O)O1)C3(C)C)CC2 (some centres not stated) | 1410 | –
COc1c(O)cc2c(c1OC)-c1ccc(SC)c(=O)cc1[C@@H](NC(=O)CC(C)=O)CC2 | 1700 | –
COc1cc2c(c(OC)c1OC)-c1ccc(SC)cc1[C@@H](O)C=C2 | 1820 | –
Cc1ccc2c(O)cc(-c3sccc3C)nc2n1 | 2820 | –
Oc1cc(-c2ccc3ccccc3c2)nc2ncccc12 | 14100 | –
COc1ccccc1-c1cc(O)c2cc(C)cnc2n1 | 18200 | –
COc1cc2c(c(OC)c1OC)-c1ccc(SC)c(=O)cc1[C@@H](NC(=O)CC(C)=O)CC2 | 1410 | –
COc1cc2c(c(OC)c1OC)-c1ccc(SC)cc1[C@H](OC(=O)c1cccnc1)CC2 | 2400 | –
CCCC(=O)O[C@H]1CCc2cc(OC)c(OC)c(OC)c2-c2ccc(SC)cc21 | 2820 | –
Cc1cccc(-c2cc(O)c3cccnc3n2)c1 | 3310 | –
CCCC(=O)O[C@@H]1CCc2cc(OC)c(OC)c(OC)c2-c2ccc(SC)cc21 | 4790 | –
COc1ccc2c(c1)CCCc1cc(OC)c(OC)c(OC)c1-2 | 1910 | –
COc1ccc2c(c1)C=CCc1cc(OC)c(OC)c(OC)c1-2 | 2190 | –
COc1cc2c(c(OC)c1OC)-c1ccc(SC)c(=O)cc1[C@@H](NC(=O)C13CCC(C)(C(=O)O1)C3(C)C)CC2 (some centres not stated) | 2400 | –

Structure (SMILES) | IC50 [1] [nM] | IC50 [2] [nM]
COc1cc2c(c(OC)c1OC)-c1ccc(SC)cc1[C@@H](OC(=O)c1cccnc1)CC2 | 4790 | –
COc1cc2c(c(OC)c1OC)-c1ccc(SC)c(=O)cc1[C@@H](NCc1ccc(F)cc1)CC2 | 3240 | –
Cc1ccc2c(O)cc(-c3cc(C)sc3C)nc2n1 | 4790 | –
COc1cc2c(c(OC)c1OC)-c1ccc(SC)c(=O)cc1[C@@H](NCc1ccc(C#N)cc1)CC2 | 2510 | –
COc1cc2c(c(OC)c1OC)-c1ccc(SC)c(=O)cc1[C@@H](COC(=O)c1cccc(F)c1)C2 | 3390 | –
Cc1cccc(-c2cc(O)c3ccc(C)nc3n2)c1 | 1910 | –
Oc1cc(-c2cccc(Cl)c2)nc2ncccc12 | 1510 | –
Cc1ccc2c(O)cc(-c3ccsc3)nc2n1 | 7940 | –
Cc1cnc2nc(-c3cccc(F)c3)cc(O)c2c1 | – | 631
Cc1ccnc2nc(-c3ccc4ccccc4c3)cc(O)c12 | 1820 | –
COc1c(O)cc2c(c1OC)-c1ccc(SC)c(=O)cc1[C@@H](NC(C)=O)CC2C=O (some centres not stated) | 2820 | –
COc1ccc2c(c1)CC=Cc1cc(OC)c(OC)c(OC)c1-2 | 1510 | –
Cc1ccnc2nc(-c3ccc(F)cc3)cc(O)c12 | 18200 | –
COc1cc2c(c(OC)c1OC)-c1ccc(SC)cc1[C@@H](OC(C)=O)CC2 | 2820 | –
Oc1cc(-c2ccc3ccccc3c2)nc2ncc(Cl)cc12 | 2510 | –
COc1cc2c(c(OC)c1OC)-c1ccc(SC)cc1[C@H](OC(C)=O)CC2 | 3090 | –
Cc1ccc2c(O)cc(-c3cccs3)nc2n1 | 6030 | –
COc1cccc(-c2cc(O)c3c(Br)ccnc3n2)c1 | 1510 | –
Cc1ccc2c(O)cc(-c3ccc4ccccc4c3)nc2n1 | 5130 | –
Cc1ccc2c(O)cc(-c3ccc(Cl)cc3)nc2n1 | 11000 | –
Cc1cccc(-c2cc(O)c3cc(C)cnc3n2)c1 | 1510 | –

Structure (SMILES) | IC50 [1] [nM] | IC50 [2] [nM]
Cc1cnc2nc(-c3ccc(Cl)cc3)cc(O)c2c1 | 2000 | –
Cc1ccc(-c2cc(O)c3c(C)ccnc3n2)cc1 | 2880 | –
Cc1ccc(-c2cc(O)c3c(C)cc(C)nc3n2)cc1 | 10000 | –
Cc1ccc(-c2cc(O)c3cc(C)cnc3n2)cc1 | 2400 | –
COc1ccc(-c2cc(O)c3cc(C)cnc3n2)cc1 | 7760 | –
COc1ccc(-c2cc(O)c3c(C)ccnc3n2)cc1 | 8710 | –
Cc1ccc(-c2cc(O)c3ccc(C)nc3n2)cc1 | 4900 | –
Cc1cnc2nc(-c3sccc3C)cc(O)c2c1 | 3800 | –
Cc1ccc2c(O)cc(-c3ccc(Br)s3)nc2n1 | 1510 | –
COc1cc2c(c(OC)c1O)-c1ccc(SC)c(=O)cc1[C@@H](NC(=O)CC(C)=O)CC2 | 3310 | –
Cc1ccc2c(O)cc(-c3ccc(Cl)s3)nc2n1 | 1700 | –
Cc1cnc2nc(-c3ccc4ccccc4c3)cc(O)c2c1 | 2090 | –
Cc1ccc2c(O)cc(-c3ccc(C)s3)nc2n1 | 1700 | –
Cc1cnc2nc(-c3ccc(C)s3)cc(O)c2c1 | 2690 | –
Oc1cc(-c2ccc(F)cc2)nc2ncc(Cl)cc12 | 15800 | –
COc1cc2c(c(OC)c1OC)-c1ccc(SC)c(=O)cc1[C@@H](COC(=O)c1ccc(F)cc1)C2 | 4470 | –
COc1cc2c(c(OC)c1OC)-c1ccc(SC)cc1[C@H](OC(=O)c1ccccc1)CC2 | 2690 | –
COC(=O)c1ccc2c(c1)C(NC(C)=O)CCc1cc(OC)c(OC)c(OC)c1-2 (configuration not stated) | 1410 | –
Cc1ccnc2nc(-c3ccc(Cl)cc3)cc(O)c12 | 4790 | –
COc1ccc2c(c1)C(NC(C)=O)CCc1cc(OC)c(OC)c(OC)c1-2 (configuration not stated) | 1510 | –
COc1cc2c(c(OC)c1OC)-c1ccc(SC)c(=O)cc1[C@@H](COC(=O)c1cccc(C#N)c1)C2 | 3020 | –

Second part, the molecule after the results:

IC50 [1] [nM] | IC50 [2] [nM] | Structure (SMILES)
692 | – | COc1cccc([C@@H]2CC(=O)c3cc4c(cc3N2)OCO4)c1
955 | – | COc1cccc(-c2cc(O)c3cccnc3n2)c1
575 | – | COc1cccc(-c2cc(O)c3cc4c(cc3n2)OCO4)c1
759 | – | COc1cccc(-c2cc(O)c3ccc(C)nc3n2)c1
741 | – | Cc1cc(C)c2c(O)cc(-c3cccc(F)c3)nc2n1
794 | – | COc1cccc(-c2cc(O)c3cc(C)cnc3n2)c1
468 | – | Oc1cccc(-c2cc(O)c3cc4c(cc3n2)OCO4)c1
724 | – | Nc1cccc(-c2cc(O)c3cc4c(cc3n2)OCO4)c1
380 | – | COc1cccc(-c2cc(O)c3cc(N(C)C)ccc3n2)c1
1100 | – | Oc1cc(-c2cccc3ccccc23)nc2ncccc12
724 | – | COc1cccc(-c2cc(O)c3c(Cl)ccnc3n2)c1
871 | – | COc1cccc(-c2cc(O)c3c(C)cc(C)nc3n2)c1
525 | – | Oc1cc(-c2cccc(F)c2)nc2cc3c(cc12)OCO3
759 | – | COc1cc2c(c(OC)c1OC)-c1ccc(SC)c(=O)cc1[C@@H](OC(=O)c1cccnc1)CC2
646 | – | CNc1cccc(-c2cc(O)c3cc4c(cc3n2)OCO4)c1
724 | – | Cc1cnc2nc(-c3cccc(Cl)c3)cc(O)c2c1
776 | – | Cc1cc(C)c2c(O)cc(-c3cccc4ccccc34)nc2n1
562 | – | COc1cc2c(c(OC)c1OC)-c1ccc(SC)c(=O)cc1[C@@H](OC(=O)c1ccncc1)CC2
447 | – | O=C(Oc1cccc(-c2cc(O)c3cc4c(cc3n2)OCO4)c1)c1ccccc1
813 | – | Oc1cc(-c2cccc(C(F)(F)F)c2)nc2cc3c(cc12)OCO3
550 | – | Cc1cnc2nc(-c3cccc4ccccc34)cc(O)c2c1
372 | – | Oc1cc(-c2cccc(Cl)c2)nc2cc3c(cc12)OCO3
363 | – | COc1cccc(-c2cc(O)c3cc(N4CCOCC4)ccc3n2)c1
891 | – | Cc1ccc2c(O)cc(-c3cccc(Cl)c3)nc2n1
776 | – | Cc1cc(C)c2c(O)cc(-c3cccc(Cl)c3)nc2n1
457 | – | Oc1cc(-c2ccccc2F)nc2ccc(N3CCCC3)cc12
525 | – | Cc1ccc2c(=O)cc(-c3cccc(F)c3)[nH]c2n1
933 | – | Cc1ccnc2nc(-c3cccc4ccccc34)cc(O)c12
661 | – | Cc1ccc2c(O)cc(-c3cccc4ccccc34)nc2n1
